Data as given in the NIST ThermoML archive (doi:10.1016/j.jct.2016.10.023).
± gives the expanded uncertainty stated by the source.

Assay: xn = mol fraction of the nth substance listed
Conditions: Constant-volume piezometry

Compound: CCCCC [pentane] + CCCO
- mass density (523.15 K, 6963 kPa, Fluid (supercritical or subcritical phases), x1 = 0.8): 258.57 ± 1.3 kg/m3
- mass density (523.15 K, 7242 kPa, Fluid (supercritical or subcritical phases), x1 = 0.8): 272.53 ± 1.4 kg/m3
- mass density (523.15 K, 7295 kPa, Fluid (supercritical or subcritical phases), x1 = 0.9): 282.01 ± 1.4 kg/m3
- mass density (523.15 K, 7431 kPa, Fluid (supercritical or subcritical phases), x1 = 0.5): 320 ± 1.8 kg/m3
- mass density (523.15 K, 7549 kPa, Fluid (supercritical or subcritical phases), x1 = 0.5): 325.27 ± 1.8 kg/m3
- mass density (523.15 K, 7577 kPa, Fluid (supercritical or subcritical phases), x1 = 0.2): 418.71 ± 2.1 kg/m3
- mass density (523.15 K, 7600 kPa, Fluid (supercritical or subcritical phases), x1 = 0.8): 288.38 ± 1.5 kg/m3
- mass density (523.15 K, 7736 kPa, Fluid (supercritical or subcritical phases), x1 = 0.9): 301.69 ± 1.5 kg/m3
- mass density (523.15 K, 7896 kPa, Fluid (supercritical or subcritical phases), x1 = 0.8): 299.2 ± 1.5 kg/m3
- mass density (523.15 K, 8097 kPa, Fluid (supercritical or subcritical phases), x1 = 0.5): 344.56 ± 1.7 kg/m3
- mass density (523.15 K, 8118 kPa, Fluid (supercritical or subcritical phases), x1 = 0.9): 312.33 ± 1.6 kg/m3
- mass density (523.15 K, 8453 kPa, Fluid (supercritical or subcritical phases), x1 = 0.8): 315.37 ± 1.6 kg/m3
- mass density (523.15 K, 8992 kPa, Fluid (supercritical or subcritical phases), x1 = 0.9): 334.04 ± 1.7 kg/m3
- mass density (523.15 K, 9070 kPa, Fluid (supercritical or subcritical phases), x1 = 0.5): 372.89 ± 1.9 kg/m3
- mass density (523.15 K, 9148 kPa, Fluid (supercritical or subcritical phases), x1 = 0.8): 333.86 ± 1.7 kg/m3
- mass density (523.15 K, 9669 kPa, Fluid (supercritical or subcritical phases), x1 = 0.8): 345.38 ± 1.7 kg/m3
- mass density (523.15 K, 10260 kPa, Fluid (supercritical or subcritical phases), x1 = 0.9): 354.13 ± 1.8 kg/m3
- mass density (523.15 K, 10494 kPa, Fluid (supercritical or subcritical phases), x1 = 0.5): 398.14 ± 2 kg/m3
- mass density (523.15 K, 10826 kPa, Fluid (supercritical or subcritical phases), x1 = 0.8): 361.95 ± 1.8 kg/m3
- mass density (523.15 K, 11137 kPa, Fluid (supercritical or subcritical phases), x1 = 0.2): 470.39 ± 2.4 kg/m3
- mass density (523.15 K, 12130 kPa, Fluid (supercritical or subcritical phases), x1 = 0.5): 417.24 ± 2.1 kg/m3
- mass density (523.15 K, 14557 kPa, Fluid (supercritical or subcritical phases), x1 = 0.5): 440.97 ± 2.2 kg/m3
- mass density (523.15 K, 15550 kPa, Fluid (supercritical or subcritical phases), x1 = 0.9): 407.31 ± 2 kg/m3
- mass density (523.15 K, 15764 kPa, Fluid (supercritical or subcritical phases), x1 = 0.5): 451.29 ± 2.3 kg/m3
- mass density (523.15 K, 16344 kPa, Fluid (supercritical or subcritical phases), x1 = 0.8): 418.23 ± 2.1 kg/m3
- mass density (523.15 K, 16569 kPa, Fluid (supercritical or subcritical phases), x1 = 0.2): 509.61 ± 2.6 kg/m3
- mass density (523.15 K, 19192 kPa, Fluid (supercritical or subcritical phases), x1 = 0.5): 468.18 ± 2.4 kg/m3
- mass density (523.15 K, 25897 kPa, Fluid (supercritical or subcritical phases), x1 = 0.2): 547.05 ± 2.8 kg/m3
- mass density (523.15 K, 26649 kPa, Fluid (supercritical or subcritical phases), x1 = 0.8): 466.73 ± 2.4 kg/m3
- mass density (523.15 K, 33702 kPa, Fluid (supercritical or subcritical phases), x1 = 0.5): 519.37 ± 2.6 kg/m3
- mass density (523.15 K, 36508 kPa, Fluid (supercritical or subcritical phases), x1 = 0.8): 496.15 ± 2.5 kg/m3
- mass density (523.15 K, 39812 kPa, Fluid (supercritical or subcritical phases), x1 = 0.2): 581.35 ± 2.9 kg/m3
- mass density (533.15 K, 1342 kPa, Gas, x1 = 0.8): 22.51 ± 0.07 kg/m3
- mass density (533.15 K, 1590 kPa, Gas, x1 = 0.2): 24.92 ± 0.08 kg/m3
- mass density (533.15 K, 2034 kPa, Gas, x1 = 0.8): 36.67 ± 0.11 kg/m3
- mass density (533.15 K, 2979 kPa, Gas, x1 = 0.8): 58.39 ± 0.18 kg/m3
- mass density (533.15 K, 3245 kPa, Gas, x1 = 0.2): 52.98 ± 0.17 kg/m3
- mass density (533.15 K, 3545 kPa, Gas, x1 = 0.8): 73.76 ± 0.23 kg/m3
- mass density (533.15 K, 3768 kPa, Fluid (supercritical or subcritical phases), x1 = 0.9): 83.34 ± 0.42 kg/m3
- mass density (533.15 K, 4255 kPa, Gas, x1 = 0.2): 91.37 ± 0.29 kg/m3
- mass density (533.15 K, 4552 kPa, Fluid (supercritical or subcritical phases), x1 = 0.8): 106.35 ± 0.54 kg/m3
- mass density (533.15 K, 4745 kPa, Gas, x1 = 0.2): 114.3 ± 0.36 kg/m3
- mass density (533.15 K, 4839 kPa, Fluid (supercritical or subcritical phases), x1 = 0.9): 123.29 ± 0.63 kg/m3
- mass density (533.15 K, 5078 kPa, Fluid (supercritical or subcritical phases), x1 = 0.9): 134.05 ± 0.68 kg/m3
- mass density (533.15 K, 5281 kPa, Fluid (supercritical or subcritical phases), x1 = 0.2): 150.27 ± 0.76 kg/m3
- mass density (533.15 K, 5454 kPa, Fluid (supercritical or subcritical phases), x1 = 0.8): 140.24 ± 0.71 kg/m3
- mass density (533.15 K, 5541 kPa, Fluid (supercritical or subcritical phases), x1 = 0.2): 175.53 ± 1 kg/m3
- mass density (533.15 K, 5638 kPa, Fluid (supercritical or subcritical phases), x1 = 0.2): 189.54 ± 1.1 kg/m3
- mass density (533.15 K, 5660 kPa, Fluid (supercritical or subcritical phases), x1 = 0.9): 163.88 ± 0.83 kg/m3
- mass density (533.15 K, 5720 kPa, Fluid (supercritical or subcritical phases), x1 = 0.8): 155.97 ± 0.8 kg/m3
- mass density (533.15 K, 5833 kPa, Fluid (supercritical or subcritical phases), x1 = 0.2): 219.99 ± 1.1 kg/m3
- mass density (533.15 K, 5973 kPa, Fluid (supercritical or subcritical phases), x1 = 0.8): 169.7 ± 0.87 kg/m3
- mass density (533.15 K, 5993 kPa, Fluid (supercritical or subcritical phases), x1 = 0.2): 245.35 ± 1.4 kg/m3
- mass density (533.15 K, 6071 kPa, Fluid (supercritical or subcritical phases), x1 = 0.8): 175.94 ± 0.89 kg/m3
- mass density (533.15 K, 6078 kPa, Fluid (supercritical or subcritical phases), x1 = 0.2): 259.07 ± 1.4 kg/m3
- mass density (533.15 K, 6109 kPa, Fluid (supercritical or subcritical phases), x1 = 0.2): 262.77 ± 1.4 kg/m3
- mass density (533.15 K, 6137 kPa, Fluid (supercritical or subcritical phases), x1 = 0.9): 189.36 ± 0.96 kg/m3
- mass density (533.15 K, 6162 kPa, Fluid (supercritical or subcritical phases), x1 = 0.2): 272.22 ± 1.5 kg/m3
- mass density (533.15 K, 6177 kPa, Fluid (supercritical or subcritical phases), x1 = 0.8): 180.74 ± 0.92 kg/m3
- mass density (533.15 K, 6285 kPa, Fluid (supercritical or subcritical phases), x1 = 0.2): 290.39 ± 1.5 kg/m3
- mass density (533.15 K, 6384 kPa, Fluid (supercritical or subcritical phases), x1 = 0.8): 193.07 ± 0.98 kg/m3
- mass density (533.15 K, 6395 kPa, Fluid (supercritical or subcritical phases), x1 = 0.9): 202.28 ± 1 kg/m3
- mass density (533.15 K, 6426 kPa, Fluid (supercritical or subcritical phases), x1 = 0.2): 306.67 ± 1.6 kg/m3
- mass density (533.15 K, 6463 kPa, Fluid (supercritical or subcritical phases), x1 = 0.2): 310.9 ± 1.6 kg/m3
- mass density (533.15 K, 6550 kPa, Fluid (supercritical or subcritical phases), x1 = 0.2): 318.61 ± 1.6 kg/m3
- mass density (533.15 K, 6727 kPa, Fluid (supercritical or subcritical phases), x1 = 0.9): 220.58 ± 1.1 kg/m3
- mass density (533.15 K, 6761 kPa, Fluid (supercritical or subcritical phases), x1 = 0.8): 213.75 ± 1.1 kg/m3
- mass density (533.15 K, 6844 kPa, Fluid (supercritical or subcritical phases), x1 = 0.2): 341.09 ± 1.7 kg/m3
- mass density (533.15 K, 6859 kPa, Fluid (supercritical or subcritical phases), x1 = 0.8): 219.51 ± 1.1 kg/m3
- mass density (533.15 K, 6879 kPa, Fluid (supercritical or subcritical phases), x1 = 0.2): 343.88 ± 1.7 kg/m3
- mass density (533.15 K, 6955 kPa, Fluid (supercritical or subcritical phases), x1 = 0.9): 232.95 ± 1.2 kg/m3
- mass density (533.15 K, 7014 kPa, Fluid (supercritical or subcritical phases), x1 = 0.9): 236.41 ± 1.2 kg/m3
- mass density (533.15 K, 7092 kPa, Fluid (supercritical or subcritical phases), x1 = 0.9): 240.81 ± 1.2 kg/m3
- mass density (533.15 K, 7159 kPa, Fluid (supercritical or subcritical phases), x1 = 0.9): 244.12 ± 1.2 kg/m3
